Assay results taken from US20240366611A1, “METHODS OF TREATING A DISEASE OR DISORDER” (Ascentage Pharma (Suzhou) Co., Ltd., priority 2021, published 2024).

Tests used:
[1] = system: Hbb-bh1 mRNA; test: Hbb-bh1 mRNA level in whole blood (qPCR, relative to GAPDH); type: in vivo, CD-1 mice
Experimental: Female CD-1 mice (8 weeks old) were housed and handled in a temperature-controlled environment with a 12-h light/12-h dark cycle. A total of 25 mice were assigned to 5 groups by randomization based on body weight, followed by 5 days of treatment with vehicle (po, qd), 3 mg/kg Cpd. 73 (po, qd), 10 mg/kg Cpd. 73 (po, qd), 30 mg/kg Cpd. 73 (po, qd), or 90 mg/kg Cpd. 73 (po, qd). The protocols and procedures involving the care and use of animals were approved by the Institutional Animal Care and Use Committee (IACUC) of WuXiAppTec (Shanghai) Co., Ltd. (Shanghai, China).
Mouse Hbb-bh1 gene, the homolog to human HBG1 gene encoding γ hemoglobin, is used as an efficacy biomarker in wide-type CD-1 mice. One hundred and twenty μL whole blood was collected for RNA isolation following the instructions of Trizol LS reagent (Invitrogen, 10296028). The relative expression of Hbb-bh1 mRNA to GAPDH mRNA were quantified by qPCR. The relative expression of Hbb-bh1 mRNA in the whole blood of CD-1 mice increased with increasing dose of Cpd. 73 from 3 mg/kg (qd×5 days) to 90 mg/kg (qd×5 days). The Hbb-bh1 mRNA levels were 82.2%, 114.6% and 178.3% of the vehicle control group when Cpd. […] 73 (p<0.05, vs. vehicle). The increased expression of Hbb-bh1 mRNA may result in increased expression of mouse βh1 hemoglobin.

[2] = system: TNBS induced IBD in Balb/c mice; test: TNBS induced inflammatory bowel disease (IBD) model; type: in vivo
Experimental: Female Balb/c mice (8 weeks old) were obtained from Beijing Vital River Laboratory Animal Co. Ltd. Animals, and then housed and handled in a temperature-controlled environment with a 12-h light/12-h dark cycle. A total of 30 mice were assigned to 3 groups by randomization based on body weight.
On Day 0, the mice weighing 18-20 g were anesthetized with […] (Easycheck, M2910), and then further intra-rectally injected 100 μL 1.5% TNBS solution (final concentration in 50% ethanol) in the vehicle group and treatment groups. For the Sham group, the mice were intra-rectally injected with 50% ethanol at the same volume.
Mice in Group 1 and Group 2 were treated with vehicle for 8 days (po, qd, from day −1 to day 6). Mice in Group 3 were treated with 90 mg/kg Cpd. 73 for 8 days (po, qd, from day −1 to day 6). The protocols and procedures involving the care and use of animals were approved by the Institutional Animal Care and Use Committee (IACUC) at WuxiApptec (Shanghai, China).
Clinical signs of IBD were assessed every day based on the score of disease activity index (DAI) which was evaluated from three parameters using a scoring system from 0 to 4: stool consistency (0, normal stool; 1, soft but still formed stool; 2, soft and not formed stool; 3, very soft and wet stool; 4, watery diarrhea), bleeding score (0, negative hemoccult; 1, weak positive hemoccult; 2, positive hemoccult; 3, blood trace in stool visible; 4, gross rectal bleeding) and body weight loss (0, no body weight loos; 1, 1-5% body weight loss; 2, 6-10% body weight loss; 3, 11-20% body weight loss; 4, >20% body weight loss).
At the end of experiment (day 7), the animals were euthanized, dissected and the entire colon was quickly removed and gently cleared of feces.
At the end of experiment, the animals were euthanized, and blood was collected immediately by the heart punctures and used for whole blood cell analysis.
At the end of the study (day 7), the cell suspensions from sham control, model control and Cpd. 73 treatment groups were obtained from mesenteric lymph nodes (MLN). Cells were stained with the following florescence-labelled antibodies: APC-Cy7-conjugated anti-mouse CD45, BV510-conjugated anti-mouse CD3e, AF700-conjugated anti-mouse CD8a, BUV395-conjugated anti-mouse CD4, BV421-conjugated anti-mouse CD25, FITC-conjugated anti-mouse Foxp3, BV650-conjugated anti-mouse IFN-γ, APC-conjugated anti-mouse B220, BV395-conjugated anti-mouse CD3e, BV605-conjugated anti-mouse CD11b, BB700-conjugated anti-mouse CD11c, AF488-conjugated anti-mouse MHCII, BV421-conjugated anti-mouse NK1.1, BV510-conjugated anti-mouse Ly6G, PE-Cy7-conjugated anti-mouse CD107a and PE-CF594-conjugated anti-mouse F4/80. All cells were primarily gated on single and live lymphocytes based on forward scatter (FCS), side scatter (SSC) and live/dead staining buffer. Samples were analyzed on a flow cytometer (BD LSRFortessa) to count the percentage of each subtype of lymphocytes.
At the end of the study (day 7), all the animals were sacrificed by CO2. The colon was Swiss-rolled and fixed with neutralized PFA followed by H&E staining. After that, the pathologists from WuXi clinical pathological analysis platform, who were blinded to animal ID, reviewed the H&E staining and scored. The pathological scoring standards were as follows: crypt architecture (normal, 0; severe crypt distortion with loss of entire crypts, 3), degree of inflammatory cell infiltration (normal, 0; dense inflammatory infiltrate, 3), muscle thickening (normal, 0; marked muscle thickening present, 3), goblet cell depletion (absent, 0; present, 1) and crypt abscess (absent, 0; present, 1).
The fixed colon was stained with Masson's Trichrome to assess the collagen fibers in colon tissue. The Masson's Trichrome staining procedures was followed the standard protocol. After that, the pathological doctors from WuXi clinical pathological analysis platform reviewed the whole slices and scored blinded with animal information. […]

[3] = 90 mg/kg po qd day −1 to day 6, end of experiment, vs vehicle
[4] = 90 mg/kg po qd day −1 to day 6, vs vehicle
[5] = 90 mg/kg, day 7, flow cytometry, vs vehicle control

CC(C)N1Cc2cc(C(F)(F)F)ncc2-c2cnc(NCc3c(F)ccc4c3CCO4)n3cnc(c23)C1=O [Cpd. 73, 12-(((5-fluoro-2,3-dihydrobenzofuran-4-yl)methyl)amino)-4-isopropyl-7-(trifluoromethyl)-4,5-dihydro-3H-2,4,8,11,12a-pentaazabenzo[4,5]cycloocta[1,2,3-cd]inden-3-one]
Hbb-bh1 mRNA level, of the vehicle control group ([1]; 3 mg/kg po qd×5 days): 82.2% | Hbb-bh1 mRNA level, of the vehicle control group ([1]; 10 mg/kg po qd×5 days): 114.6% | Hbb-bh1 mRNA level, of the vehicle control group ([1]; 30 mg/kg po qd×5 days): 178.3% | Hbb-bh1 mRNA, fold of increase ([1]; 90 mg/kg po qd×5 days, p<0.05 vs vehicle): 3.04 fold | colon length ([2]; 90 mg/kg po qd day −1 to day 6, day 7, vehicle 6.26±0.17 cm): 8.79±0.22 cm | pathological score (H&E, colon) ([2]; 90 mg/kg po qd day −1 to day 6, day 7, vehicle 10.33±0.35): 1.70±0.37 | colon weight ([2]; 90 mg/kg po qd day −1 to day 6, day 7, vehicle 336.8±26.68 mg): 213.8 ± 6.08 mg | anemia (red blood cells and hemoglobin in peripheral blood) ([2]; 90 mg/kg po qd day −1 to day 6, end of experiment): improved | cell number of monocytes in peripheral blood [2, 3]: significantly reduced | cell number of neutrophils in peripheral blood [2, 3]: significantly reduced | fibrosis score (Masson's Trichrome, colon) ([2]; 90 mg/kg po qd day −1 to day 6, vehicle 4.33±0.30): 1.10±0.17 | DAI score [2, 4]: significantly reducing | body weight loss [2, 4]: improving | percentage of IFN-γ secreting CD4+ T cells (Th1 cells) in MLN [2, 5]: significantly reduced | percentage of NK cells in MLN [2, 5]: significantly reduced | percentage of activated NK cells in MLN [2, 5]: significantly reduced | percentage of macrophages in MLN [2, 5]: significantly reduced | percentage of neutrophils in mesenteric lymph nodes (MLN) [2, 5]: significantly reduced
